In ChEMBL document CHEMBL1201862, “PubChem BioAssay data set” (2004):
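Tested at 5 concentrations; 48 h exposure; 96-well plates; endpoints linearly interpolated, else capped at highest concentration. Here, GI50 denotes the concentration required for 50% inhibition of growth.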 Active and inactive are the calls of the source. Rule as the data show it: active = GI50 up to about 1.1 µM and inactive = higher.

Assays:
Experiment in all cases: DTP human tumour cell line panel, 48 h
IGROV-1 = system: IGROV-1
UACC-62 = system: UACC-62
A549 = system: A549
SNB-19 = system: SNB-19
HCT-116 = system: HCT-116
Malme-3M = system: Malme-3M
HCC 2998 = system: HCC 2998
EKVX = system: EKVX
BT-549 = system: BT-549
SF-539 = system: SF-539
MDA-N = system: MDA-N
SK-MEL-28 = system: SK-MEL-28
786-0 = system: 786-0
OVCAR-4 = system: OVCAR-4
PC-3 = system: PC-3
UACC-257 = system: UACC-257
COLO 205 = system: COLO 205
SF-268 = system: SF-268
NCI-H23 = system: NCI-H23
NCI-H226 = system: NCI-H226
MDA-MB-231 = system: MDA-MB-231
T47D = system: T47D
U-251 = system: U-251
HOP-92 = system: HOP-92
MDA-MB-435 = system: MDA-MB-435
Hs-578T = system: Hs-578T
HL-60 = system: HL-60
HCT-15 = system: HCT-15
RXF 393 = system: RXF 393
KM12 = system: KM12
NCI/ADR-RES = system: NCI/ADR-RES
SN12C = system: SN12C
SK-OV-3 = system: SK-OV-3
MCF7 = system: MCF7
NCI-H522 = system: NCI-H522
ACHN = system: ACHN
UO-31 = system: UO-31
OVCAR-8 = system: OVCAR-8
SK-MEL-2 = system: SK-MEL-2
DU-145 = system: DU-145
K562 = system: K562
SK-MEL-5 = system: SK-MEL-5
SNB-75 = system: SNB-75
OVCAR-5 = system: OVCAR-5
RPMI-8226 = system: RPMI-8226
M14 = system: M14
SF-295 = system: SF-295
CAKI-1 = system: CAKI-1
HT-29 = system: HT-29
A498 = system: A498
SW-620 = system: SW-620
LOX IMVI = system: LOX IMVI
NCI-H460 = system: NCI-H460
OVCAR-3 = system: OVCAR-3
TK-10 = system: TK-10
HOP-62 = system: HOP-62
CCRF-CEM = system: CCRF-CEM
MOLT-4 = system: MOLT-4

## CC(C)(C)n1c(=O)n2c(-c3ccccc3)c(-c3ccccc3)n2c1=O
IGROV-1
  GI50: > 100 µM (inactive)
UACC-62
  GI50: > 100 µM (inactive)
A549
  GI50: 56.9 µM (inactive)
SNB-19
  GI50: > 100 µM (inactive)
HCT-116
  GI50: 25.4 µM (inactive)
Malme-3M
  GI50: > 100 µM (inactive)
HCC 2998
  GI50: 49.7 µM (inactive)
EKVX
  GI50: > 100 µM (inactive)
BT-549
  GI50: 53.7 µM (inactive)
SF-539
  GI50: 36.8 µM (inactive)
MDA-N
  GI50: > 100 µM (inactive)
SK-MEL-28
  GI50: > 100 µM (inactive)
786-0
  GI50: 57.5 µM (inactive)
OVCAR-4
  GI50: 72.6 µM (inactive)
PC-3
  GI50: 44.7 µM (inactive)
UACC-257
  GI50: > 100 µM (inactive)
COLO 205
  GI50: > 100 µM (inactive)
SF-268
  GI50: > 100 µM (inactive)
NCI-H23
  GI50: > 100 µM (inactive)
NCI-H226
  GI50: > 100 µM (inactive)
MDA-MB-231
  GI50: > 100 µM (inactive)
T47D
  GI50: > 100 µM (inactive)
U-251
  GI50: > 100 µM (inactive)
HOP-92
  GI50: > 100 µM (inactive)
MDA-MB-435
  GI50: > 100 µM (inactive)
Hs-578T
  GI50: > 100 µM (inactive)
HL-60
  GI50: 11.5 µM (inactive)
HCT-15
  GI50: > 100 µM
RXF 393
  GI50: 76 µM (inactive)
KM12
  GI50: > 100 µM (inactive)
NCI/ADR-RES
  GI50: > 100 µM (inactive)
SN12C
  GI50: > 100 µM (inactive)
SK-OV-3
  GI50: > 100 µM (inactive)
MCF7
  GI50: 56.6 µM (inactive)
NCI-H522
  GI50: 17.5 µM (inactive)
ACHN
  GI50: > 100 µM (inactive)
UO-31
  GI50: 12.5 µM (inactive)
OVCAR-8
  GI50: > 100 µM (inactive)
SK-MEL-2
  GI50: 28.8 µM (inactive)
DU-145
  GI50: > 100 µM (inactive)
K562
  GI50: 1.24 µM (inactive)
SK-MEL-5
  GI50: 71.8 µM (inactive)
SNB-75
  GI50: > 100 µM (inactive)
OVCAR-5
  GI50: > 100 µM (inactive)
RPMI-8226
  GI50: 17.1 µM (inactive)
M14
  GI50: 37 µM (inactive)
SF-295
  GI50: > 100 µM (inactive)
CAKI-1
  GI50: > 100 µM (inactive)
HT-29
  GI50: 66.7 µM (inactive)
A498
  GI50: > 100 µM (inactive)
SW-620
  GI50: > 100 µM (inactive)
LOX IMVI
  GI50: 68.4 µM (inactive)
NCI-H460
  GI50: > 100 µM (inactive)
OVCAR-3
  GI50: > 100 µM (inactive)
TK-10
  GI50: > 100 µM (inactive)

## COc1ccc(/C=C2\CC3C4CC=C5C[C@@H](N6CCCC6)CC[C@]5(C)C4CC[C@]3(C)[C@H]2O)cc1OC (stereo partly drawn)
IGROV-1
  GI50: 10.7 µM (inactive)
UACC-62
  GI50: 8.97 µM (inactive)
A549
  GI50: 9.46 µM (inactive)
SNB-19
  GI50: 10.4 µM (inactive)
HOP-62
  GI50: 5.48 µM (inactive)
CCRF-CEM
  GI50: 8.17 µM (inactive)
HCT-116
  GI50: 8.24 µM (inactive)
Malme-3M
  GI50: 9.2 µM (inactive)
HCC 2998
  GI50: 5.52 µM (inactive)
EKVX
  GI50: 8.79 µM (inactive)
BT-549
  GI50: 8.87 µM (inactive)
SF-539
  GI50: 7.06 µM (inactive)
MDA-N
  GI50: 7.55 µM (inactive)
SK-MEL-28
  GI50: 8.51 µM (inactive)
786-0
  GI50: 3.77 µM (inactive)
OVCAR-4
  GI50: 7.67 µM (inactive)
MOLT-4
  GI50: 8.39 µM (inactive)
PC-3
  GI50: 6.3 µM (inactive)
UACC-257
  GI50: 8.13 µM (inactive)
COLO 205
  GI50: 8.38 µM (inactive)
SF-268
  GI50: 10.4 µM (inactive)
NCI-H23
  GI50: 9.04 µM (inactive)
NCI-H226
  GI50: 10.5 µM (inactive)
MDA-MB-231
  GI50: 7.85 µM (inactive)
T47D
  GI50: 12.2 µM (inactive)
U-251
  GI50: 8.45 µM (inactive)
HOP-92
  GI50: 10.7 µM (inactive)
MDA-MB-435
  GI50: 6.7 µM (inactive)
Hs-578T
  GI50: 11 µM (inactive)
HL-60
  GI50: 14.4 µM (inactive)
HCT-15
  GI50: 6.81 µM
RXF 393
  GI50: 8.77 µM (inactive)
KM12
  GI50: 6.56 µM (inactive)
NCI/ADR-RES
  GI50: 9.02 µM (inactive)
SN12C
  GI50: 10.2 µM (inactive)
SK-OV-3
  GI50: 8.81 µM (inactive)
MCF7
  GI50: 7.55 µM (inactive)
NCI-H522
  GI50: 8.22 µM (inactive)
ACHN
  GI50: 8.85 µM (inactive)
UO-31
  GI50: 9.27 µM (inactive)
OVCAR-8
  GI50: 10.6 µM (inactive)
SK-MEL-2
  GI50: 7.43 µM (inactive)
DU-145
  GI50: 11.2 µM (inactive)
K562
  GI50: 8.09 µM (inactive)
SK-MEL-5
  GI50: 7.26 µM (inactive)
SNB-75
  GI50: 12.2 µM (inactive)
OVCAR-5
  GI50: 10.2 µM (inactive)
RPMI-8226
  GI50: 7.52 µM (inactive)
M14
  GI50: 9.44 µM (inactive)
SF-295
  GI50: 3.13 µM (inactive)
CAKI-1
  GI50: 8.65 µM (inactive)
HT-29
  GI50: 4.13 µM (inactive)
A498
  GI50: 8.2 µM (inactive)
SW-620
  GI50: 15.8 µM (inactive)
LOX IMVI
  GI50: 8.97 µM (inactive)
NCI-H460
  GI50: 9.16 µM (inactive)
OVCAR-3
  GI50: 8.32 µM (inactive)
TK-10
  GI50: 10.8 µM (inactive)
